# Experimental data taken from patent publication US8221762B2, “Naturally processed measles virus peptides from class II HLA molecules” (priority 2004, dated 2012).
# Columns and labels:
# [1] = system: PBMC from subjects previously immunized with MMR-II vaccine; test: T cell proliferation assay ([3H]-thymidine, 3 days, SI cut point 3.0), Example 1; type: cell-based, human; conditions: 95 subjects
# Source text: Study participants included ninety-five healthy residents of Olmsted County, Minn., aged 11 to 18 years. […] Mononuclear leukocytes were isolated by Ficoll-Hypaque (Amersham) density gradient centrifugation.
# For descriptive analyses, we used medians and ranges for continuous variables and frequencies for categorical variables. We compared cpm for MV-stimulated, MV-P1-stimulated and MV-P2-stimulated cells with unstimulated cells using Wilcoxon signed rank tests. Associations between the continuously distributed stimulation indices for MV-P1, MV-P2 peptides, and MV were determined using Spearman rank correlation coefficients. Stimulation indices were subsequently dichotomized into positive or negative using a cut point of 3.0. We then compared MV positivity with MV-P1 and MV-P2 positivity using estimates of sensitivity.
# [2] = system: PBMC of subjects previously immunized with MMR-II vaccine; test: IFN-γ supernatant cytokine response (ELISA) to measles virus and synthetic measles peptides; type: cell-based, human; conditions: for Median secretion value IFN-γ: stimulated minus control cells
# Procedure: (§1) To evaluate the immunogenicity of measles-derived peptides, 281 of these subjects (age 12 to 18 years) were studied.
# (§2) Cryopreserved PBMC were used to measure cytokine responses to measles-derived peptides. We thawed cryopreserved PBMC at a concentration of 1×10^7 cells/mL using standard protocol. The vials were rapidly thawed in a 37° C. water bath and then washed twice with 10× volume of complete RPMI 1640 media supplemented with 10% FCS at 700 rpm for 5 minutes. The final cell pellet was resuspended in complete RPMI media containing penicillin-streptomycin (100 U/mL) and supplemented with 5% normal human AB sera (Ervin Sci., Santa Ana, Calif.). For IFN-γ determination, thawed PBMC were cultured at a concentration of 2×10^5 in RPMI containing 5% normal human AB sera with or without measles peptides (10 μg/well) and MV (positive control) at a moi of 0.5 for 6 days. For IL-4 determination in cell culture supernatants, we cultured thawed PBMC at a concentration of 4×10^5 in RPMI media, supplemented with 5% normal human AB sera. Cells were cultured in the presence of 2 μg/mL of IL-4 receptor antibody (R&D Systems, Minneapolis, Minn.) (Ekerfelt, et al., J. Immunol. Methods 260:55-67, 2002) with or without synthetic measles-derived peptides (10 μg/well) and MV (positive control) at a moi of 0.1 for 6 days. Cell culture supernatants were collected in a volume of 150 μl/well for both IFN-γ and IL-4 and were frozen at […] until assayed. The culture supernatants were assayed using a standard ELISA protocol (OptiEtA Human IFN-γ and IL-4, PharMingen, San Diego, Calif.) at a dilution of 1:1 in PBS containing 10% FCS. ELISA plates (Immulon-4, DYNEX Technologies Inc, Chantilly, Va.) were coated with capture IFN-γ or IL-4 mAb and incubated overnight at 4° C. The antibody-coated plates were incubated with diluted supernatant samples for 2 hours at room temperature followed by incubation with biotinylated mouse anti-human IFN-γor IL-4 conjugated to avidin-horseradish peroxidase for 1 hour at room temperature. The absorbance of the product was read using a microplate reader (Molecular Devices, Sunnyvale, Calif.) at 450 nm. The IFN-γ and IL-4 concentration of test samples was calculated by reference to the standard curve. Unstimulated and MV-stimulated secretion measurements for IFN-γ were performed in triplicate, while all other secretion measurements for both IFN-γ and IL-4 were performed in duplicate. Individual-specific values were then summarized by taking means of the duplicate or triplicate values. Mean background levels of IFN-γ and IL-4 cytokine production in cultures not stimulated with measles peptides or MV was subtracted from the mean antigen-induced responses to produce “corrected” secretion values. Negative corrected values indicate that the unstimulated secretion levels were, on average, higher than the stimulated secretion levels.
# (§3) Two criteria were established to define positive responses for secreted IFN-γ and IL-4 cytokines using ELISA.
# [3] = system: PBMC of subjects previously immunized with MMR-II vaccine; test: IL-4 supernatant cytokine response (ELISA) to measles virus and synthetic measles peptides; type: cell-based, human; conditions: for Median secretion value IL-4: stimulated minus control cells
# Procedure: as §1, §2, §3
# [4] = system: PBMC of subjects previously immunized with MMR-II vaccine; test: T cell proliferation assay ([3H]-thymidine, 4 days, SI>2 positive), Example 3; conditions: 131 subjects (MV-P2 130, MV-F 43)
# Procedure: Briefly, study participants were enrolled as part of a larger stratified random sample study to assess associations between HLA genes and immune response to measles-mumps-rubella-II (MMR-II) vaccine in healthy, school-age children and young adults (ages 12 to 18 years). To evaluate the cellular responses to measles peptides, 131 subjects were used. In addition, a random subset of 43 individuals was tested for reactivity to a control measles fusion (F) peptide. All enrolled subjects had been previously immunized with two doses of MMR-II vaccine (Merck Research, West Point, Pa.) containing the attenuated Edmonston strain of MV. All but four of these participants were Caucasian and all subjects resided in a geographic area where no wild-type MV had circulated in the community during the subjects' lifetimes.
# In brief, peripheral blood mononuclear cells (PBMC) were separated from heparinized blood by Ficoll-Hypaque (Sigma, St. Louis, Mo.) density gradient centrifugation and washed in RPMI 1640 medium (Celox Laboratories, Inc., St. Paul, Minn.) supplemented with 2 mM L-glutamine, 100 μg/ml streptomycin, 100 U/ml penicillin and 8% fetal calf serum (Life Technologies, Gaithersburg, Md.). Measles virus, MV-P1, MV-P2, and MV-F specific T cell responses were measures by proliferation of PBMC (2×10^5) incubated in RPMI-1640 medium, supplemented with 5% autologous sera, with live attenuated MV (50 pfu/ml, positive control) or synthetic peptides (20 μg/ml) compared to unstimulated cell control wells. Phytohemagglutinin (PHA, 5 μg/ml) was used to assess cell vitality. Only assays in which PBMC responded to PHA were accepted. T lymphocyte proliferation was measured after 4 days by [^3H]-tritiated thymidine uptake. Cells were then harvested onto glass fiber filters, using a 96-well harvesting system (Skatron Instruments, Norway). The amount of incorporated radioactivity was determined by a liquid scintillation counter (Packard Instrument Company, Boston, Mass.). We used six replicates of counts per minute (cpm) values for unstimulated cells, and three replicates each for T cells stimulated with peptides and live measles vaccine. For each subject, median cpm were calculated for unstimulated cells, as well as for cells stimulated with MV-P1, MV-P2, MV-F and measles. Results were then expressed as antigen-specific stimulation indices (SI), defined as the ratio of the median cpm of antigen-stimulated wells to the median cpm of unstimulated control wells. […] SI>2 was arbitrarily selected prior to the study as an indication of the presence of reactive peptide specific memory T cells, and SI<2 as an indicator of the lack of memory T lymphocytes to measles-derived peptides (Pauksen, et al., Bone Marrow Transplant 20:317-323, 1997).
# Three outcomes were of primary interest: T cell proliferation (as measured by stimulation indices) induced separately by live MV, the MV-P1 peptide, and the MV-P2 peptide variant. Data were descriptively summarized using frequencies and percentages for all categorical variables, and medians and ranges for all continuous variables.
# [5] = peptides 20 μg/ml, MV 50 PFU/well
# [6] = 281 subjects, stimulated cells minus unstimulated cells
# [7] = peptides 20 μg/ml, MV 50 pfu/ml, 4 days
smiles,measurement,setting,value
CC[C@H](C)[C@H](NC(=O)[C@H](CCC(=O)O)NC(=O)CNC(=O)CNC(=O)[C@H](CCC(=O)O)NC(=O)[C@H](C)NC(=O)[C@@H](NC(=O)[C@H](CCC(=O)O)NC(=O)[C@@H](NC(=O)[C@H](CC(=O)O)NC(=O)[C@H](CO)NC(=O)[C@H](C)N)C(C)C)[C@@H](C)O)C(=O)N[C@@H](Cc1c[nH]cn1)C(=O)N[C@@H](CCC(=O)O)C(=O)N[C@@H](CC(C)C)C(=O)N[C@@H](CC(C)C)C(=O)N[C@@H](CCCNC(=N)N)C(=O)N[C@@H](CC(C)C)C(=O)N[C@@H](CCC(N)=O)C(=O)O [MV-P1],subjects with stimulation index greater than 3.0 (recognized),[1],17%
same,"stimulation index, median",[1]; [5],1.4
same,"stimulation index, range",[1]; [5],0.5-20.3
same,"median cpm value, lymphoproliferative assay","[1]; peptides 20 μg/ml, live attenuated MV 50 PFU/well, 3 days",472 cpm
same,IFN-γ % Response (>20 pg/mL),"[2]; 281 subjects, peptides 10 μg/well, MV moi 0.5, 6 days",55.9%
same,IFN-γ Median level,[2]; [6],28.0 pg/mL
same,Median secretion value IFN-γ,[2]; All other HLA-DRB1 alleles,26.7 pg/mL
same,Median secretion value IFN-γ,[2]; HLA-DRB1 allele *0101,51.2 pg/mL
same,Median secretion value IFN-γ,[2]; HLA-DRB1 allele *0102,17.6 pg/mL
same,Median secretion value IFN-γ,[2]; HLA-DRB1 allele *0103,116.2 pg/mL
same,Median secretion value IFN-γ,[2]; HLA-DRB1 allele *0301,40.8 pg/mL
same,Median secretion value IFN-γ,[2]; HLA-DRB1 allele *0401,33.5 pg/mL
same,Median secretion value IFN-γ,[2]; HLA-DRB1 allele *0402,0.1 pg/mL
same,Median secretion value IFN-γ,[2]; HLA-DRB1 allele *0404,52.2 pg/mL
same,Median secretion value IFN-γ,[2]; HLA-DRB1 allele *0407,8.6 pg/mL
same,Median secretion value IFN-γ,[2]; HLA-DRB1 allele *0701,18.6 pg/mL
same,Median secretion value IFN-γ,[2]; HLA-DRB1 allele *0801,27.2 pg/mL
same,Median secretion value IFN-γ,[2]; HLA-DRB1 allele *0901,19.9 pg/mL
same,Median secretion value IFN-γ,[2]; HLA-DRB1 allele *1001,46.9 pg/mL
same,Median secretion value IFN-γ,[2]; HLA-DRB1 allele *1101,48.5 pg/mL
same,Median secretion value IFN-γ,[2]; HLA-DRB1 allele *1103,65.3 pg/mL
same,Median secretion value IFN-γ,[2]; HLA-DRB1 allele *1104,15.4 pg/mL
same,Median secretion value IFN-γ,[2]; HLA-DRB1 allele *1201,14.6 pg/mL
same,Median secretion value IFN-γ,[2]; HLA-DRB1 allele *1301,27.4 pg/mL
same,Median secretion value IFN-γ,[2]; HLA-DRB1 allele *1302,14.2 pg/mL
same,Median secretion value IFN-γ,[2]; HLA-DRB1 allele *1303,63.9 pg/mL
same,Median secretion value IFN-γ,[2]; HLA-DRB1 allele *1401,22.5 pg/mL
same,Median secretion value IFN-γ,[2]; HLA-DRB1 allele *1501,32.8 pg/mL
same,Median secretion value IFN-γ,[2]; HLA-DRB1 allele *03011,18.7 pg/mL
same,Median secretion value IFN-γ,[2]; Overall (281),28.0 pg/mL
same,MV IFN-γ responders who also produced IFN-γ to the peptide,[2]; among the 185 subjects who responded to MV,59.5%
same,IL-4 % Response (>10 pg/mL),"[3]; 281 subjects, peptides 10 μg/well, MV moi 0.1, 6 days",19.2%
same,IL-4 Median level,[3]; [6],-0.4 pg/mL
same,Median secretion value IL-4,[3]; All other HLA-DRB1 alleles,-1.3 pg/mL
same,Median secretion value IL-4,[3]; HLA-DRB1 allele *0101,1.1 pg/mL
same,Median secretion value IL-4,[3]; HLA-DRB1 allele *0102,5.6 pg/mL
same,Median secretion value IL-4,[3]; HLA-DRB1 allele *0103,-1.5 pg/mL
same,Median secretion value IL-4,[3]; HLA-DRB1 allele *0301,3.5 pg/mL
same,Median secretion value IL-4,[3]; HLA-DRB1 allele *0401,0.9 pg/mL
same,Median secretion value IL-4,[3]; HLA-DRB1 allele *0402,3.8 pg/mL
same,Median secretion value IL-4,[3]; HLA-DRB1 allele *0404,0.3 pg/mL
same,Median secretion value IL-4,[3]; HLA-DRB1 allele *0407,-2.1 pg/mL
same,Median secretion value IL-4,[3]; HLA-DRB1 allele *0701,-0.6 pg/mL
same,Median secretion value IL-4,[3]; HLA-DRB1 allele *0801,-1.4 pg/mL
same,Median secretion value IL-4,[3]; HLA-DRB1 allele *0901,-0.9 pg/mL
same,Median secretion value IL-4,[3]; HLA-DRB1 allele *1001,0.9 pg/mL
same,Median secretion value IL-4,[3]; HLA-DRB1 allele *1101,-3.7 pg/mL
same,Median secretion value IL-4,[3]; HLA-DRB1 allele *1103,-3.5 pg/mL
same,Median secretion value IL-4,[3]; HLA-DRB1 allele *1104,-1.3 pg/mL
same,Median secretion value IL-4,[3]; HLA-DRB1 allele *1201,-0.4 pg/mL
same,Median secretion value IL-4,[3]; HLA-DRB1 allele *1301,-3.0 pg/mL
same,Median secretion value IL-4,[3]; HLA-DRB1 allele *1302,1.2 pg/mL
same,Median secretion value IL-4,[3]; HLA-DRB1 allele *1303,-4.2 pg/mL
same,Median secretion value IL-4,[3]; HLA-DRB1 allele *1401,-0.8 pg/mL
same,Median secretion value IL-4,[3]; HLA-DRB1 allele *1501,-0.7 pg/mL
same,Median secretion value IL-4,[3]; HLA-DRB1 allele *03011,0.2 pg/mL
same,Median secretion value IL-4,[3]; Overall (281),-0.4 pg/mL
same,MV IL-4 responders who also responded to the peptide,[3]; among the 143 subjects with IL-4 production from MV-stimulated PBMC,23.1%
same,subjects with stimulation index greater than 2 (positive lymphoproliferative response),[4],41%
same,"stimulation index, median",[4]; [7],1.7
same,"stimulation index, range",[4]; [7],0.5-20.3
